Laboratory results reported in patent US7923465B2, “Cannabinoid receptor ligands, pharmaceutical compositions containing them, and process for their preparation” (priority 2005, dated 2011).
Where two headings read alike, the source gives them in different places.

What was measured:
[1] = target: T1, CB1 (Rattus norvegicus, UniProt P20272); assay: GTPγS binding assay, CB1 functional assay in rat cerebellar membrane (Protocol VIII); assay type: biochemical; set-up: 10 μg rat cerebellum membrane; from tissue; host or cells: rat cerebellum membrane, prepared in-house; conditions: for activation at 1 µM / activation at 0.3 µM: 1 h, read-out: Per Se % Stimulation; for activation at 1 µM / activation at 0.3 µM / Per Se % Stimulation: GTPγS binding over basal, rat cerebellar membrane; for activation at 1 µM / Per Se % Stimulation: tested at 1 uM; for inhibition at 1 µM / inhibition at 0.3 µM / % Inhibition of WIN-55212-2 induced stimulation: GTPγS binding; for inhibition at 1 µM / % Inhibition of WIN-55212-2 induced stimulation: tested at 1 uM in presence of 1 μM WIN 55,212-2; for inhibition at 1 µM / inhibition at 0.3 µM: read-out: % Inhibition of WIN-55212-2 induced stimulation; for activation at 0.3 µM: tested at 300 nM; for inhibition at 0.3 µM: tested at 300 nM in presence of 1 μM WIN 55,212-2
T1 sequence (P20272 whole entry): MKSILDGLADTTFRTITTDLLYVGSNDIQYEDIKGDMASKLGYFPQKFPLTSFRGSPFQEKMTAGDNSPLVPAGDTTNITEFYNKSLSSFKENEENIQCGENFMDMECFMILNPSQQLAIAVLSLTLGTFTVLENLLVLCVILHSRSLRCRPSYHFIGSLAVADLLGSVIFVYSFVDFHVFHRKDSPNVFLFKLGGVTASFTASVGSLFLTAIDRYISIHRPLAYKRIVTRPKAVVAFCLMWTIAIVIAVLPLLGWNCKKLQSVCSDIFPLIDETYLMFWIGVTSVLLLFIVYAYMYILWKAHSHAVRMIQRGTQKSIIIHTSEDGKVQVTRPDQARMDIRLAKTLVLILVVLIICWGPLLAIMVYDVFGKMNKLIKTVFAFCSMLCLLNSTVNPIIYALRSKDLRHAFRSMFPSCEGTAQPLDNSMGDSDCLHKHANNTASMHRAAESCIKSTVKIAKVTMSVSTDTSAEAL
Description: VIII. Protocol for GTPγS Binding Assay (CB1 Functional Assay in Rat Cerebellar Membrane)
In this GTPγS binding assay, total, basal and nonspecific binding were determined. See Griffin G., Atkinson P. J., Showalter V. M., Martin B. R. and Abood M. E., “Evaluation of cannabinoid receptor agonists and antagonists using the Guanosine-5′-O-(3-(^35S)thio)-triphosphate binding assay in rat cerebellar membranes,” J Pharmacol Exp Ther 285: 553-560, 1998. Three wells for total binding, three wells for basal binding, and three wells for nonspecific binding at 0.2 nM concentration of radioligand were used. Basal binding was defined by 50 μM GDP (Guanosine diphosphate) and non-specific binding was defined by 10 μM unlabeled GTPγS. 10 μg rat cerebellum membrane, 50 μM of GDP, WIN-55212-2 or test compound (1 μM or 300 nM), 10 μM unlabeled GTPγs, and 0.2 nM of [^35S]GTPγS were added into a 96 well plate and the final volume of the reaction mixture was made with GTPγS buffer (50 mM Tris, 3 mM anhydrous MgCl2, 0.2 mM EGTA and 100 mM NaCl pH 7.4) to 200 μl. The plates were incubated at 30° C. for 1 hour. Then the reaction was stopped by filtration using a Whatman GF/B-96 microfilter plate. Three washings were given using Tris-HCl. The radioactivity bound to the brain membrane was retained on the filter disks to which scintillation fluid was added (Microscint PS). Then plates were read for radioactive counts using a Beta Liquid Scintillation Counter (Packard Instruments, Ill., USA).
The rat cerebellar brain membrane was prepared as follow: • 1. Sacrifice the rat and take out the whole brain and separate cerebellum as fast as possible and keep it on ice. • 2. Take the weight of the cerebellum and homogenize in 30 ml of homogenizing buffer (50 mM Tris-HCL containing 1 mM EDTA and 5% sucrose, pH 7.5) using homogenizer in cold condition. • 3. Centrifuge the homogenized cerebellum at 18000 rpm (38000 g) for 15 min at 4° C. • 4. Resuspend the pellet in 5 ml 50 mM Tris-HCL containing 1 mM EDTA and keep it on ice for 30 min. • 5. Pass the membrane through insulin syringe to ensure uniform suspension. • 6. Centrifuge the membrane at 18000 rpm at 4° C. for 20 min. • 7. Reconstitute the pellet in 3 ml of GTPγS buffer and estimate the protein by BCA assay and store the membrane in aliquots of 1000 μg of protein. CB1 Agonist and Antagonist Activity Screening Assay
The test compounds were screened at a final concentration of 1 μM or 300 nM in the absence and presence of 1 μM of WIN 55, 212-2 in the same manner as described in the GTPγS binding assay.
An agonist will stimulate the GTPγS binding over the basal.
An inverse agonist will decrease the basal GTPγS binding and/or produce more than 100% inhibition of the agonist (WIN-55212-2) induced stimulation.
The percent stimulation of GTPγS binding by each test compound at 1 μM or 300 nM concentration in the absence and presence of 1 μM WIN 55, 212-2 was calculated by comparing it with basal specific bound (Basal binding—Non Specific binding) values.

[2] = target: T1, CB1; assay: Rat CB1 receptor binding using brain membrane, [3H]SR141716A displacement (Protocol I); set-up: CB1 receptor present in a rat brain membrane preparation; from tissue; host or cells: rat brain membrane; inhibition: dose or concentration left out as unconfirmed; conditions: for inhibition: 1 h
[3] = target: hCB2 (Homo sapiens, UniProt P34972); assay: In vitro binding assay using hCB2-CHO membranes, [3H]-CP-55,940 displacement (Protocol IV); set-up: expressed in transfected cells; host or cells: CHO (hCB2-CHO, generated in-house); conditions: hCB2-CHO membranes, [3H]-CP-55,940 displacement
hCB2, sequence (P34972 whole entry): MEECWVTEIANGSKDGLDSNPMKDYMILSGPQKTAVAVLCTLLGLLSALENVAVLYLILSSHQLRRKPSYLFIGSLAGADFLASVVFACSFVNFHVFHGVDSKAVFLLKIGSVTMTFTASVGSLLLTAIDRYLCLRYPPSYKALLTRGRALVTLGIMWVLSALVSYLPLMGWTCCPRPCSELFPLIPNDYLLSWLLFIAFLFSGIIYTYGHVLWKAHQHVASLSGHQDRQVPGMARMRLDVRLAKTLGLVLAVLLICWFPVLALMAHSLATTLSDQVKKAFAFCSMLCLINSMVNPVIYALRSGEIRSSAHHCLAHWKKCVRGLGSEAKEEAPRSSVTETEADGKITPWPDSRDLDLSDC
Outline: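 Displacement of [3H]-CP-55,940 (0.75 nM) from membranes of CHO cells expressing human CB2 (25-50 μg) was measured in Tris-BSA buffer pH 7.4 with 5 mM MgCl2, 1 mM EDTA, 0.1% BSA, 1 h at 30 °C. Test compounds were at 300 nM final; nonspecific binding defined with 0.5 μM CP-55,940. Values are % displacement of specific binding.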

[4] = rat brain membrane, [3H]SR141716A displacement, read-out: % Displacement Protocol I
[5] = read-out: % Displacement Protocol I, rat brain membrane, [3H]SR141716A displacement
[6] = rat brain membrane, [3H]SR141716A displacement

| Structure (SMILES) | melting point [°C] | activation at 1 µM [1] [%] | inhibition at 1 µM [1] [%] | inhibition [2, 4] [%] | further results |
| --- | --- | --- | --- | --- | --- |
| CN(NC(=O)c1nn(-c2ccc(Cl)cc2)c2c1C1CC3CC(C1)CC2C3)C1CCCCC1 [Example 107, N(7)-(N-cyclohexyl-N-methylamino)-5-(4-chlorophenyl)-5,6-diazatetracyclo[7.3.1.1^3,11.0^4,8]tetradeca-4(8),6-diene-7-carboxamide] | 219 | 4 | 71.5 | 97.4 |  |
| O=C(NNc1ccc(Cl)cc1Cl)c1n[nH]c2c1C1(c3ccc(Cl)cc3)CCC2C1 (stereo not shown) [Example 230, N(3)-[(2,4-Dichlorophenyl)amino]-4-(4-chlorophenyl)-4,5,6,7-tetrahydro-1H-4,7-methano-indazole-3-carboxamide] |  | 42.4 | 99.4 | 87.2 |  |
| O=C(NC1CCCCC1)c1nn(-c2ccc(F)cc2F)c2c1C1CCC2C1 (stereo not shown) [Example 290, N(3)-Cyclohexyl-1-(2,4-difluorophenyl)-4,5,6,7-tetrahydro-1H-4,7-methano-indazole-3-carboxamide] | 119 | 3.8 | 35.3 |  | inhibition [2, 5]: 80.3% |
| O=C(NNc1ccc(Cl)cc1Cl)c1nn(-c2ccc(Cl)cc2)c2c1C1CC3CC(C1)CC2C3 [Example 126, N(7)-(2,4-Dichlorophenylamino)-5-(4-chlorophenyl)-5,6-diazatetracyclo[7.3.1.1^3,11.0^4,8]tetradeca-4(8),6-diene-7-carboxamide] |  | -7.9 | 104 | 118 |  |
| O=C(NN1CCCCC1)c1nn(-c2ccc(Cl)cc2Cl)c2c1C1CCC2c2ccccc21 (stereo not shown) [Example 502, N(12)-Piperidino-10-(2,4-dichlorophenyl)-10,11-diazatetracyclo[6.5.2.0^2,7.0^9,13]pentadeca-2,4,6,9(13),11-pentaene-12-carboxamide] | 164 to 166 | 1.8 | 91.1 | 81.3 |  |
| O=C(NN(c1ccccc1)c1ccccc1)c1nn(-c2ccc(Cl)cc2)c2c1C1CC3CC(C1)CC2C3 [Example 137, N(7)-(N′,N′-Diphenylamino)-5-(4-chlorophenyl)-5,6-diazatetracyclo[7.3.1.1^3,11.0^4,8]tetradeca-4(8),6-diene-7-carboxamide] | 214 | 13 | 76 |  | inhibition [2, 5]: 76.7% |
| CC12CCC(C1)C(C)(C)C2NC(=O)c1nn(-c2ccc(Cl)cc2Cl)c2c1C1CCC2C1 (stereo not shown) [Example 241, N(3)-(1,3,3-Trimethylbicyclo[2.2.1]hept-2-yl)-1-(2,4-dichlorophenyl)-4,5,6,7-tetrahydro-1H-4,7-methano-indazole-3-carboxamide] | 156 to 159 |  |  |  | activation at 0.3 µM [1]: 54.7%; inhibition at 0.3 µM [1]: 32.9%; inhibition [2, 5]: 92.5% |
| O=C(NCc1ccccc1)c1nn(-c2ccc(Cl)cc2Cl)c2c1C1CCC2C1 (stereo not shown) [Example 269, N(5)-benzyl-3-(2′,4′-dichlorophenyl)-3,4-diazatricyclo[5.2.1.0^2,6]deca-2(6),4-diene-5-carboxamide] |  | 6 | 91.4 | 47.7 |  |
| O=C(NC1CCCCC1)c1nn(-c2ccc(Cl)cc2Cl)c2c1C1CCC2C1 (stereo not shown) [Example 237, N(3)-Cyclohexyl-1-(2,4-dichlorophenyl)-4,5,6,7-tetrahydro-1H-4,7-methano-indazole-3-carboxamide] |  | 7.1 | 74.7 | 65.6 |  |
| Cl.O=C(NN1CCCCC1)c1nn(-c2ccc(Cl)cc2Cl)c2c1C1CCC2c2ccccc21 (stereo not shown) [Example 503, N(12)-Piperidino-10-(2,4-dichlorophenyl)-10,11-diazatetracyclo[6.5.2.0^2,7.0^9,13]pentadeca-2,4,6,9(13),11-pentaene-12-carboxamide hydrochloride] |  |  |  |  | Per Se % Stimulation [1]: 1.5%; % Inhibition of WIN-55212-2 induced stimulation [1]: 92.0%; inhibition [2, 5]: 81.2% |
| O=C(NNc1ccccc1F)c1nn(-c2ccc(Cl)cc2Cl)c2c1C1CCC2C1 (stereo not shown) [Example 264, N(3)-[(2-Fluorophenyl)amino]-1-(2,4-dichlorophenyl)-4,5,6,7-tetrahydro-1H-4,7-methano-indazole-3-carboxamide] |  | -0.1 | 94.5 | 85.6 |  |
| O=C(NCc1ccccc1)c1nn(-c2ccc(Cl)cc2)c2c1C1CC3CC(C1)CC2C3 [Example 139, N(7)-Benzyl-5-(4′-chlorophenyl)-5,6-diazatetracyclo[7.3.1.1^3,11.0^4,8]tetradeca-4(8)-6-diene-7-carboxamide] |  |  |  |  | Per Se % Stimulation [1]: −8.5%; % Inhibition of WIN-55212-2 induced stimulation [1]: 109.1%; % Displacement Protocol I [2, 6]: 62.4% |
| O=C(NN(c1ccccc1)c1ccccc1)c1nn(-c2ccc(Cl)cc2Cl)c2c1C1CC3CC(C1)CC2C3 [Example 177, N(7)-(N′,N′-Diphenylimino)-5-(2,4-dichlorophenyl)-5,6-diazatetracyclo[7.3.1.1^3,11.0^4,8]tetradeca-4(8),6-diene-7-carboxamide] |  |  |  |  | % Displacement Protocol IV [3]: 15.26%; Per Se % Stimulation [1]: 9.7%; % Inhibition of WIN-55212-2 induced stimulation [1]: 109.1%; % Displacement Protocol I [2, 6]: 75.6% |
| O=C(NC12CC3CC(CC(C3)C1)C2)c1nn(-c2ccc(Cl)cc2Cl)c2c1C1CCC2C1 (stereo not shown) [Example 242, N(3)-(Adamantan-1yl)-1-(2,4-dichlorophenyl)-4,5,6,7-tetrahydro-1H-4,7-methano-indazole-3-carboxamide] | 201 to 204 |  |  |  | activation at 0.3 µM [1]: 33.4%; inhibition at 0.3 µM [1]: 22.9% |
| O=C(NN1CCCCC1)c1nn(-c2ccc(Cl)cc2Cl)c2c1C1CC3CC(C1)CC2C3 [Example 180, N(7)-piperidino-5-(2′,4′-dichlorophenyl)-5,6-diazatetracyclo[7.3.1.1^3,11.0^4,8]tetradeca-4(8),6-diene-7-carboxamide] |  | 10 | 87.9 | 40.6 | inhibition at 0.3 µM ([3]; 1 h, read-out: % Displacement Protocol IV): 13.2% |
| CN(NC(=O)c1nn(-c2ccc(Cl)cc2)c2c1C1CC3CC(C1)CC2C3)c1ccc(Cl)cc1Cl [Example 127] |  |  |  |  | Per Se % Stimulation [1]: 18.0%; % Inhibition of WIN-55212-2 induced stimulation [1]: 100.2%; % Displacement Protocol I [2, 6]: 85.3% |
